Source: PubChem BioAssay (NCI)
“And” between values parts separate entries of the source, which are not always exact repeats. Equal values may be shown once.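 Assay format: 96-well plates, 48-hour exposure. Abbreviation: GI50, concentration required for 50% inhibition of growth. At the TGI there is no net growth.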

Legend:
Experiment in all cases: growth of human tumour cells (NCI), 48 h
[1] = tested on: A498 renal
[2] = tested on: TK-10 renal
[3] = tested on: HT29 colon
[4] = tested on: BT-549 breast
[5] = tested on: LOX IMVI melanoma
[6] = tested on: SR leukemia
[7] = tested on: UACC-62 melanoma
[8] = tested on: NCI/ADR-RES ovarian
[9] = tested on: MDA-MB-231 breast
[10] = tested on: IGROV1 ovarian
[11] = tested on: K-562 leukemia
[12] = tested on: MDA-MB-435

Structure (SMILES)	TGI [1] [µM]	TGI [2] [µM]	TGI [3] [µM]	TGI [4] [µM]	TGI [5] [µM]	TGI [6]	TGI [7] [µM]	TGI [8] [µM]	TGI [9] [µM]	TGI [10] [µM]	TGI [11] [µM]	TGI [12] [µM]	GI50 [6] [µM]	GI50 [7] [µM]	GI50 [8] [µM]	GI50 [9] [µM]	GI50 [10] [µM]	GI50 [11] [µM]	GI50 [12] [µM]
O=c1c[n+](-c2ccccc2)[nH]o1	> 100	> 100	> 100	> 100	> 100	> 100 µM	> 100	> 100	> 100	> 100	> 100	> 100	–	–	–	–	–	–	–
COc1cc(/C=C/c2sc3ccccc3[n+]2C)ccc1N(C)C	> 100	32	32.4	3.7	31.9	7.71 µM and 36.3 µM	22.4	> 100	23.2	22	6.16	22.5	6.85	10.4	> 100	11.2	9.14	1.86	10.2
COCC(=O)OC1CCn2c1nc1c2C(=O)C(C)=C(NC(C)=O)C1=N (centres undefined)	32.9	32	> 47.4	3.76	6.04	7.52 µM	3.34	17.6	8.82	24.2	4.59	3.59	–	–	–	–	–	–	–
CC(C)/C(Cl)=N\OC(=O)Nc1ccc(F)c([N+](=O)[O-])c1	41.7	13.5	35.3	27	10.7	26.3 µM	39.1	35.2	28.9	13.5	> 100	26	–	–	–	–	–	–	–
O=C1NC(N/N=C/c2ccccc2)=N/C1=C\c1cccs1	28	71.5	> 55.3	33.6	23.4	> 100 µM	38	37.6	38.7	34.4	> 80.3	34.6	–	–	–	–	–	–	–
c1cc2cc(c1)CN1CCNCCN(CCNCC1)Cc1cccc(c1)CN1CCNCCN(CCNCC1)C2	> 100	> 100	> 100	> 100	> 100	> 100 µM	> 100	> 100	> 100	> 100	> 100	> 100	–	–	–	–	–	–	–
CC1(C)O[C@H]2[C@@H]3N=C(c4ccccc4)O[C@@H]3C=C[C@H]2O1	> 100	> 100	> 100	> 100	> 100	> 100 µM	> 100	> 100	> 100	> 100	> 100	> 100	–	–	–	–	–	–	–
OCCCCn1cc(Cn2ncc3c(SCc4ccccc4)ncnc32)nn1	> 100	> 100	> 100	> 100	> 100	85.4 µM	> 100	> 100	> 100	> 100	> 100	> 100	–	–	–	–	–	–	–
O=C1N(CN2CCOCC2)CN(CN2CCOCC2)C(=O)N1Cc1ccccc1	> 100	> 100	39.9	57	33	40.7 µM	49.4	61.7	69.6	64.9	51.4	38	–	–	–	–	–	–	–
c1nc(SSc2ncnc3nc[nH]c23)c2[nH]cnc2n1	> 100	–	> 100	> 100	20.4	> 41.6 µM	0.0568	> 30.5	> 56.5	> 100	> 100	> 85.3	–	–	–	–	–	–	–
CCN(CC)c1nc(N(C)C)c2ccc(OC)cc2n1	–	> 100	26.1	64.8	42.3	31.4 µM	24.8	69.1	75.8	> 100	66.6	24.6	–	–	–	–	–	–	–
Cc1nc(N)c(N2CCN(Cc3ccccc3)CC2)c(=O)[nH]1	> 100	> 100	> 100	> 100	> 100	> 100 µM	–	> 100	> 100	–	> 100	> 100	–	–	–	–	–	–	–
O=C1c2ccccc2C(=O)c2c1oc(=O)c1ccccc21	> 25	18.9	13	9.2	9.9	21.3 µM	8.36	10.2	13.8	10.4	17.9	3.61	–	–	–	–	–	–	–
COc1ccc(/C=C(\C(=O)OCC(C)C)c2ccc(OC)c(OC)c2)cc1OC	> 100	> 100	> 100	> 100	> 100	> 100 µM	> 100	> 100	61.5	> 100	> 100	> 100	–	–	–	–	–	–	–
CC(=O)N1CC[N+](C)(CCCCN2c3ccccc3Sc3cc(N=[N+]=[N-])ccc32)CC1	> 100	> 100	> 100	> 100	> 100	> 100 µM	> 100	> 100	> 100	> 100	> 100	> 100	–	–	–	–	–	–	–
CC1(C)CCCCCC(C)(CCCCCCCCCCCO)C1=O (centres undefined)	33	24.5	24.1	33.8	28.7	14.3 µM	29.4	27	29.9	32.6	31	30.9	–	–	–	–	–	–	–
COc1ccc(C(=O)/C=C/c2ccc(OCC(=O)O)cc2)cc1	> 100	> 100	> 100	> 100	> 100	> 100 µM	> 100	> 100	> 100	> 100	> 100	> 100	–	–	–	–	–	–	–
CCOC(=O)NC(NNc1ccc([N+](=O)[O-])cc1[N+](=O)[O-])(C(F)(F)F)C(F)(F)F	73	96	> 100	> 100	> 100	60.6 µM	> 100	> 100	> 100	> 100	> 100	> 100	–	–	–	–	–	–	–
